A word on the MIC: it is the least concentration at which growth counts as inhibited. The term IC50 denotes the concentration at which inhibition is half-maximal. Higher therefore signals lower potency.

Here are results for two compounds from paper PMC5971061, “Differential Effects of Linkers on the Activity of Amphiphilic Tobramycin Antifungals” (Molecules : A Journal of Synthetic Chemistry and Natural …, 2018).

Data set [1] concerns C. albicans ATCC 10231 (strain A). Briefly: MIC, broth microdilution (CLSI M27-A3), yeast strain A. The data set is classed as cell-based, Candida albicans. Conditions: Candida albicans, ATCC10231; MIC-0, strain A, 35 °C 48 h. In a few lines:
(§1)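 Yeast cultures are grown overnight in YPD, set to OD600 0.12, and diluted into RPMI 1640 at 1–5 × 10^3 CFU/mL. Cells are then added to twofold-titrated compounds (final 0.24–62.5 μg/mL) and incubated at 35 °C for 48 h.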

Data set [2] deals with C. albicans ATCC 64124 (strain B). Briefly: MIC, broth microdilution (CLSI M27-A3), yeast strain B. The data set is classed as cell-based. Particulars: Candida albicans, ATCC64124; MIC-0, strain B, 35 °C 48 h. In a few lines: as §1
For orientation: In broth dilution the organism is exposed to a series of concentrations in liquid medium.

Data set [3] deals with C. albicans ATCC MYA-2876(S) (strain C). Briefly: MIC, broth microdilution (CLSI M27-A3), yeast strain C. The data set is classed as cell-based. Conditions: Candida albicans; MIC-0, strain C, 35 °C 48 h. In a few lines:
as §1

Data set [4] relates to C. albicans ATCC 90819(R) (strain D). Briefly: MIC, broth microdilution (CLSI M27-A3), yeast strain D. Format: cell-based. Conditions: Candida albicans, ATCC90819; MIC-0, strain D, 35 °C 48 h. The procedure, abridged: as §1
Data set [5] deals with C. albicans ATCC MYA-2310(S) (strain E). Briefly: MIC, broth microdilution (CLSI M27-A3), yeast strain E. Format: cell-based. Conditions: Candida albicans; MIC-0, strain E, 35 °C 48 h. In a few lines: as §1
Data set [6] relates to C. albicans ATCC MYA-1237(R) (strain F). Briefly: MIC, broth microdilution (CLSI M27-A3), yeast strain F. Format: cell-based. Particulars: Candida albicans; MIC-0, strain F, 35 °C 48 h. The procedure, abridged: as §1
The subject of data set [7] is C. albicans ATCC MYA-1003(R) (strain G). Briefly: MIC, broth microdilution (CLSI M27-A3), yeast strain G. Format: cell-based. Particulars: Candida albicans; MIC-0, strain G, 35 °C 48 h. The procedure, abridged: as §1
Data set [8] concerns Candida glabrata clinical isolate CG1. Briefly: MIC, broth microdilution (CLSI M27-A3), CG1. Format: cell-based. Particulars: Nakaseomyces glabratus; MIC-0, CG1, 35 °C 48 h. The procedure, abridged: as §1
The test system of data set [9] is Candida glabrata clinical isolate CG2. Briefly: MIC, broth microdilution (CLSI M27-A3), CG2. Format: cell-based. Particulars: Nakaseomyces glabratus; MIC-0, CG2, 35 °C 48 h. The procedure, abridged: as §1
Data set [10] concerns Candida glabrata clinical isolate CG3. Briefly: MIC, broth microdilution (CLSI M27-A3), CG3. Conditions: Nakaseomyces glabratus; MIC-0, CG3, 35 °C 48 h. Format: cell-based. The procedure, abridged: as §1
Data set [11] concerns Candida glabrata ATCC 2001 (strain H). Briefly: MIC, broth microdilution (CLSI M27-A3), yeast strain H. The data set is classed as cell-based. Conditions: Nakaseomyces glabratus, ATCC2001; MIC-0, strain H, 35 °C 48 h. In a few lines:
as §1

Data set [12] deals with Candida krusei ATCC 6258 (strain I). Briefly: MIC, broth microdilution (CLSI M27-A3), yeast strain I. The data set is classed as cell-based. Conditions: Pichia kudriavzevii, ATCC6258; MIC-0, strain I, 35 °C 48 h. The procedure, abridged:
as §1

In data set [13] the test system is Candida parapsilosis clinical isolate CP1. Briefly: MIC, broth microdilution (CLSI M27-A3), CP1. Format: cell-based. Particulars: Lodderomyces parapsilosis; MIC-0, CP1, 35 °C 48 h. In a few lines: as §1
In data set [14] the test system is Candida parapsilosis clinical isolate CP2. Briefly: MIC, broth microdilution (CLSI M27-A3), CP2. Format: cell-based. Conditions: Lodderomyces parapsilosis; MIC-0, CP2, 35 °C 48 h. The procedure, abridged:
as §1

Data set [15] deals with Cryptococcus neoformans clinical isolate CN1. Briefly: MIC, broth microdilution (CLSI M27-A3), CN1. Particulars: MIC-0, CN1, 35 °C 48 h. The data set is classed as cell-based. The procedure, abridged: as §1
The test system of data set [16] is Cryptococcus neoformans clinical isolate CN2. Briefly: MIC, broth microdilution (CLSI M27-A3), CN2. Conditions: MIC-0, CN2, 35 °C 48 h. The data set is classed as cell-based. The procedure, abridged: as §1
The test system of data set [17] is Cryptococcus neoformans clinical isolate CN3. Briefly: MIC, broth microdilution (CLSI M27-A3), CN3. The data set is classed as cell-based. Conditions: MIC-0, CN3, 35 °C 48 h. In a few lines: as §1
Data set [18] has as its system Aspergillus terreus ATCC MYA-3633 (strain M). Briefly: MIC, filamentous fungi (CLSI M38-A2), strain M. The data set is classed as cell-based. Particulars: MIC-0, strain M, 35 °C 72 h. The procedure, abridged: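 Spores from PDA cultures, inoculum 5 × 10^5 spores/mL in RPMI 1640 against two-fold serial dilutions (0.24–62.5 μg/mL for tobramycin derivatives). Incubated 72 h at 35 °C, triplicate.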

Data set [19] relates to seven C. albicans strains (A-G). Briefly: MIC across the panel of seven C. albicans strains. The data set is classed as cell-based. Conditions: Candida albicans; across all seven C. albicans strains tested. How it is done:
(§2) The final concentrations of compounds 3, 4, 7a, 7b, 9, and 16, as well as that of TOB tested in this study ranged from 0.24–62.5 μg/mL. CAS was used as a positive control and the final concentrations tested for CAS ranged from 0.03–31.3 μg/mL. Briefly, overnight yeast cultures were grown in yeast peptone dextrose (YPD) broth and the cell density was adjusted to an OD600 of 0.12 (~1 × 10^6 CFU/mL) by using a spectrophotometer. Yeast cell suspensions were further diluted to achieve 1–5 × 10^3 CFU/mL in RPMI 1640 medium, and 100 μL of these yeast cells was added to 96-well microtiter plates containing RPMI 1640 medium and titrated compounds. Each test was performed in triplicate. The plates were incubated at 35 °C for 48 h.

The subject of data set [20] is nine non-albicans Candida strains (H-J, CG1-3, CP1-3). Briefly: MIC across the panel of nine non-albicans Candida strains. Format: cell-based, Candida glabrata, Candida krusei, Candida parapsilosis. How it is done:
as §2

The subject of a further data set is BEAS-2B cell line. Briefly: In vitro cytotoxicity assay (resazurin), BEAS-2B. The data set is classed as cell-based, human. Conditions: 24 h. How it is done: Mammalian cytotoxicity assays were performed as previously described with minor modifications. The normal human bronchial epithelial cells BEAS-2B and the human lung carcinoma epithelial cells A549 were grown in DMEM containing 10% fetal bovine serum (FBS) and 1% antibiotics. The confluent cells were then trypsinized with 0.05% trypsin and 0.53 mM EDTA, and resuspended in fresh DMEM medium. The cells were transferred into 96-well microtiter plates at a density of 3000 cells/well and were grown for 24 h. The following day, the medium was replaced by a fresh culture medium containing serially diluted compounds 3, 4, 7a, 7b, and 9, as well as the parent drug TOB at final concentrations of 0.48–62.5 μg/mL or sterile ddH2O (negative control). The cells were incubated for an additional 24 h at 37 °C with 5% CO2 in a humidified incubator. To evaluate cell survival, each well was treated with 10 μL (25 μg/mL) of resazurin sodium salt (Sigma-Aldrich) for 4–6 h. Metabolically active cells can convert resazurin (blue) to the highly fluorescent dye resorufin (pink), which was detected at λ560 excitation and λ590 emission wavelengths by using a SpectraMax M5 plate reader. Triton X-100® (1% v/v) gave the complete loss of cell viability and was used as the positive control. The percentage survival rates were calculated by using the following formula: % cell survival = [(fluorescence of sample) − (fluorescence of blank)] × 100/[(fluorescence of negative control) − (fluorescence of blank)].
Background: Alamar Blue is a resazurin reagent that responds to reducing activity.

SMILES strings stand for the structures. ≈ marks a conversion by molar mass, not a printed value.

With `CCCCCCCCCCCC(=O)NC[C@H]1O[C@H](O[C@@H]2[C@@H](O)[C@H](O[C@H]3O[C@H](CN)[C@@H](O)C[C@H]3N)[C@@H](N)C[C@H]2N)[C@H](O)[C@@H](N)[C@@H]1O` [Compound 9, O-3-Amino-3,6-dideoxy-6-[(1-oxododecyl)amino]-α-D-glucopyranosyl-(1→6)-O-[2,6-diamino-2,3,6-trideoxy-α-D-ribo-hexopyranosyl-(1→4)]-2-deoxy-D-streptamine], the MIC is 31.3 µg/mL (≈ 48.2 µM) in [1]; 15.6 µg/mL (≈ 24 µM) in [2]; 31.3 µg/mL (≈ 48.2 µM) in data set [3]; 62.5 µg/mL (≈ 96.3 µM) in data set [4]; 31.3 µg/mL (≈ 48.2 µM) in data set [5]; 31.3 µg/mL (≈ 48.2 µM) in data set [6]. The MIC in data set [7] was found to be 31.3 µg/mL (≈ 48.2 µM); in [8], 15.6 µg/mL (≈ 24 µM); in data set [9], 15.6 µg/mL (≈ 24 µM); in [10] it was 15.6 µg/mL (≈ 24 µM); in data set [11] it was 31.3 µg/mL (≈ 48.2 µM); in data set [12], 15.6 µg/mL (≈ 24 µM). Moreover, the MIC in data set [13] is 31.3 µg/mL (≈ 48.2 µM); in data set [14] it was 15.6 µg/mL (≈ 24 µM); in data set [15] it was 0.975 µg/mL (≈ 1.5 µM); in data set [16], 0.975 µg/mL (≈ 1.5 µM); in [17] it was 0.975 µg/mL (≈ 1.5 µM); in data set [18], over 62.5 µg/mL. Besides, the MIC in data set [19] fell in the range of 15.6 to 62.5 µg/mL (≈ 24 to 96.3 µM); in data set [20], 7.8 to 31.3 µg/mL (≈ 12 to 48.2 µM). In addition, in the data set on BEAS-2B cell line (Homo sapiens, resazurin), the IC50 was over 62.5 µg/mL.
Consider `NC[C@H]1O[C@H](O[C@H]2[C@H](O)[C@@H](O[C@H]3O[C@H](CO)[C@@H](O)[C@H](N)[C@H]3O)[C@H](N)C[C@@H]2N)[C@H](N)C[C@@H]1O` [TOB, tobramycin], for which the MIC in data set [1], in data set [2], in data set [3], in [4], in [5] and in data set [6] was over 62.5 µg/mL in each case. In addition, the MIC in data set [7], in data set [8], in [9], in data set [10], in [11] and in data set [12] was over 62.5 µg/mL throughout. Also, the MIC in data set [13], in data set [14], in data set [15], in [16], in data set [17] and in data set [18] was over 62.5 µg/mL throughout. Moreover, the MIC in [19] and in data set [20] was over 62.5 µg/mL in each case. The “toxicity (in words)” value in the data set with BEAS-2B cell line (0.48-62.5 μg/mL) is “little to no toxicity”.
